Activity calls are given as the source filed them. The rule behind the calls is not given here.
Columns and labels:
[1] = molecular target: Metabotropic glutamate receptor 2 (Rattus norvegicus, UniProt P31421); test: Positive allosteric modulation of rat mGluR2 expressed in HEK293 cells co-expressing Galpha15 G protein assessed as increase in glutamate-induced intracellular calcium release by FLIPR assay; type: functional, cell-based
Mus musculus [2] = test: Antipsychotic activity in sc dosed CD1 mouse assessed as inhibition of mescaline-induced scratching behavioral response administered 20 mins before mescalin challenge measured for 12 mins; type: functional
[3] = Cmax in rat brain at 3 mg/kg, po; type: ADME, organism-based; parameters: dose 3 mg/kg, route oral
Mus musculus [4] = test: Antipsychotic activity in sc dosed mouse assessed as inhibition of methamphetamine-induced hyperlocomotion measured for 60 mins; type: functional
[5] = Oral bioavailability in rat at 3 mg/kg; type: ADME, organism-based; conditions: in vivo
[6] = Plasma clearance in rat at 0.5 mg/kg, iv; type: ADME, organism-based; parameters: dose 0.5 mg/kg, route intravenous
Brain = test: Fraction unbound in rat brain by LC-MS/MS assay; type: ADME, tissue-based
[7] = Ratio of drug level in brain to plasma in rat at 3.2 mg/kg, sc after 60 mins; type: ADME, organism-based; parameters: dose 3.2 mg/kg, route subcutaneous
[8] = Ratio of drug level in brain to plasma in mouse at 10 mg/kg, sc after 60 mins; type: ADME, organism-based; parameters: dose 10 mg/kg, route subcutaneous
D(2) dopamine receptor [9] = molecular target: D(2) dopamine receptor (Rattus norvegicus, UniProt P61169); test: Displacement of [3H]spiperone from dopamine D2 receptor in rat corpus striatum by beta plate scintillation counting; type: tissue-based
[10] = Permeability from apical to basolateral side of MDR1 transfected MDCK cells at 1 uM; type: ADME, cell-based, Canis lupus familiaris; conditions: dog, read-out: permeability
[11] = molecular target: Metabotropic glutamate receptor 1 (Homo sapiens) (UniProt Q13255); test: Agonist activity at mGlu1 receptor at up to 10 uM; type: functional
[12] = molecular target: Metabotropic glutamate receptor 1 (Homo sapiens) (UniProt Q13255); test: Antagonist activity at mGlu1 receptor at up to 10 uM; type: functional
[13] = molecular target: Metabotropic glutamate receptor 5 (Homo sapiens) (UniProt P41594); test: Agonist activity at mGlu5 receptor at up to 10 uM; type: functional
[14] = molecular target: Metabotropic glutamate receptor 5 (Homo sapiens) (UniProt P41594); test: Antagonist activity at mGlu5 receptor at up to 10 uM; type: functional
[15] = molecular target: Metabotropic glutamate receptor 5 (Homo sapiens) (UniProt P41594); test: Positive allosteric modulation of mGlu5 receptor at up to 10 uM
[16] = molecular target: T1, 5-hydroxytryptamine receptor 1A (Homo sapiens) (UniProt P08908); test: Binding affinity to 5HT1A receptor at 3.16 uM
T1 sequence (whole entry): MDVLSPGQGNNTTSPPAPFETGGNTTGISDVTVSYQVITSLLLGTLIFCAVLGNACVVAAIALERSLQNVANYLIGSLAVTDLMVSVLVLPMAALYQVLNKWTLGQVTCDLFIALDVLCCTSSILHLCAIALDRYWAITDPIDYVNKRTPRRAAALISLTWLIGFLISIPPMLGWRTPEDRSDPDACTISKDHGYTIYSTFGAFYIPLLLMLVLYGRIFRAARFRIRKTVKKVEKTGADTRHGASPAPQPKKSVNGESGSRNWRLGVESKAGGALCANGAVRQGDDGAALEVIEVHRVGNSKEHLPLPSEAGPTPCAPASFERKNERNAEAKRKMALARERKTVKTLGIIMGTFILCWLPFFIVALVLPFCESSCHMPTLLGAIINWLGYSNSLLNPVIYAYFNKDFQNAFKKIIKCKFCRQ

[17] = molecular target: Histamine H1 receptor (Homo sapiens) (UniProt P35367); test: Binding affinity to histamine H1 receptor at 3.16 uM
[18] = molecular target: T2, Alpha-2A adrenergic receptor (Homo sapiens) (UniProt P08913); test: Binding affinity to adrenergic alpha2A receptor at 3.16 uM
T2 sequence (whole entry): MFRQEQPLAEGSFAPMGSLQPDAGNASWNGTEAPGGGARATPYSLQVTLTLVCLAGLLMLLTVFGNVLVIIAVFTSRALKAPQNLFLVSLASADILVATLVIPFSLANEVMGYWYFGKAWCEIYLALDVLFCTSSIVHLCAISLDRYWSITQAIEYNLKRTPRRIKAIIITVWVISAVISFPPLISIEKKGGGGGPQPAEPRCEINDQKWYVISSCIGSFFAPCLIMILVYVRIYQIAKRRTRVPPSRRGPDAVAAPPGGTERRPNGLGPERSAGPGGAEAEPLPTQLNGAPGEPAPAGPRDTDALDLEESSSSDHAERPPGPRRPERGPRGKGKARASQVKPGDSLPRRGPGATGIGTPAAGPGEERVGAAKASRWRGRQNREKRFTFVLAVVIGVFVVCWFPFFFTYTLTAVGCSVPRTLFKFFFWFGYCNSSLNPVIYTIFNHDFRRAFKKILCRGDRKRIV

[19] = molecular target: 5-hydroxytryptamine receptor 2A (Homo sapiens) (UniProt P28223); test: Binding affinity to 5HT2A receptor at 3.16 uM
MDCK = test: Efflux ratio of permeability from […] of MDR1 transfected MDCK cells at 1 uM; type: ADME, cell-based, Canis lupus familiaris; conditions: dog
[20] = molecular target: 5-hydroxytryptamine receptor 2B (Homo sapiens) (UniProt P41595); test: Binding affinity to 5HT2B receptor at 3.16 uM
[21] = molecular target: T3, Muscarinic acetylcholine receptor M1 (Homo sapiens) (UniProt P11229); test: Binding affinity to muscarinic M1 receptor at 3.16 uM
T3 sequence (whole entry): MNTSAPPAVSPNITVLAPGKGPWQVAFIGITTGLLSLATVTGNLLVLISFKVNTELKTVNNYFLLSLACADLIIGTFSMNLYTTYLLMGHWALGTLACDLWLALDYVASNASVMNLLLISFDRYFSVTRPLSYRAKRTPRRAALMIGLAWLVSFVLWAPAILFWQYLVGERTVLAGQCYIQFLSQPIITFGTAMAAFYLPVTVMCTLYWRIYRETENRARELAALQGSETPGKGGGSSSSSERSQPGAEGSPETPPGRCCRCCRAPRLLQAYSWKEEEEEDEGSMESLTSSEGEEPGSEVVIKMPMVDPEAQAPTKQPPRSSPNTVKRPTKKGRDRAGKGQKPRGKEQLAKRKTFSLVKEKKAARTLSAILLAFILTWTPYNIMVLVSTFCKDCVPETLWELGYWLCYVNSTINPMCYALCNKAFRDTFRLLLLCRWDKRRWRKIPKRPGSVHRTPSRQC

D(2) dopamine receptor [22] = molecular target: D(2) dopamine receptor (Homo sapiens, UniProt P14416); test: Antagonist activity at human dopamine D2 receptor expressed in CHO cells assessed as inhibition of quinpirole-induced effect; type: functional, cell-based
hERG (KCNH2) = hERG (KCNH2) (Homo sapiens, UniProt Q12809); test: Binding affinity to human ERG at 3.16 uM
hERG (KCNH2), sequence (Q12809 whole entry): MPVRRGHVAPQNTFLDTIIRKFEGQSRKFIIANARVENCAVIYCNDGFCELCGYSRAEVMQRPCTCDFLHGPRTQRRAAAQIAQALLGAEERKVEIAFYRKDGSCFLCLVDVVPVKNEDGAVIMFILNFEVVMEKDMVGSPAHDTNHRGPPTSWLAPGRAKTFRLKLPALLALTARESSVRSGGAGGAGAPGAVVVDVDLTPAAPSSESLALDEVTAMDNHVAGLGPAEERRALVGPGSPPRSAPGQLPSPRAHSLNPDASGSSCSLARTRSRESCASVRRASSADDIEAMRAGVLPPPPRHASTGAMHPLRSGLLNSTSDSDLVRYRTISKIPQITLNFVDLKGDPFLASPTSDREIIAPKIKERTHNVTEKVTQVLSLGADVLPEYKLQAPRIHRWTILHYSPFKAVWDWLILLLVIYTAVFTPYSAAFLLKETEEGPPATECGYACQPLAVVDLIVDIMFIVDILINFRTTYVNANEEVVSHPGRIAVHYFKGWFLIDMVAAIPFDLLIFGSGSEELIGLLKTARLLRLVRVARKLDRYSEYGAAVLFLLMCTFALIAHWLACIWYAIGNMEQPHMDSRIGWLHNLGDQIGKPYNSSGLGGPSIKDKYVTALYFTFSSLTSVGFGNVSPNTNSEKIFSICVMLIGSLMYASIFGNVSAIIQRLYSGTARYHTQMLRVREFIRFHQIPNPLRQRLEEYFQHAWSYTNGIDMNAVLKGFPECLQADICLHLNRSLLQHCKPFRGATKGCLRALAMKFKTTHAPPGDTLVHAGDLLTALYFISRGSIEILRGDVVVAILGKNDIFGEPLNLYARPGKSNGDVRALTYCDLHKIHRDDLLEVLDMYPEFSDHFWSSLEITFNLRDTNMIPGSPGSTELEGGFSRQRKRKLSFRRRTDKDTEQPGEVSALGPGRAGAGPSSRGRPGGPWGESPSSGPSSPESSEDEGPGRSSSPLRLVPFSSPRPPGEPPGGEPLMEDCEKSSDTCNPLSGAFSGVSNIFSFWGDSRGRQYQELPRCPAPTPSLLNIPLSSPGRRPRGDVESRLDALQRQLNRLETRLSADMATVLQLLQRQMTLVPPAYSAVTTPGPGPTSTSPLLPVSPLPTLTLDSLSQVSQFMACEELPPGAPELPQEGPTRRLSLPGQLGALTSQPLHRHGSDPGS

Metabotropic glutamate receptor 2, sequence (P31421 whole entry): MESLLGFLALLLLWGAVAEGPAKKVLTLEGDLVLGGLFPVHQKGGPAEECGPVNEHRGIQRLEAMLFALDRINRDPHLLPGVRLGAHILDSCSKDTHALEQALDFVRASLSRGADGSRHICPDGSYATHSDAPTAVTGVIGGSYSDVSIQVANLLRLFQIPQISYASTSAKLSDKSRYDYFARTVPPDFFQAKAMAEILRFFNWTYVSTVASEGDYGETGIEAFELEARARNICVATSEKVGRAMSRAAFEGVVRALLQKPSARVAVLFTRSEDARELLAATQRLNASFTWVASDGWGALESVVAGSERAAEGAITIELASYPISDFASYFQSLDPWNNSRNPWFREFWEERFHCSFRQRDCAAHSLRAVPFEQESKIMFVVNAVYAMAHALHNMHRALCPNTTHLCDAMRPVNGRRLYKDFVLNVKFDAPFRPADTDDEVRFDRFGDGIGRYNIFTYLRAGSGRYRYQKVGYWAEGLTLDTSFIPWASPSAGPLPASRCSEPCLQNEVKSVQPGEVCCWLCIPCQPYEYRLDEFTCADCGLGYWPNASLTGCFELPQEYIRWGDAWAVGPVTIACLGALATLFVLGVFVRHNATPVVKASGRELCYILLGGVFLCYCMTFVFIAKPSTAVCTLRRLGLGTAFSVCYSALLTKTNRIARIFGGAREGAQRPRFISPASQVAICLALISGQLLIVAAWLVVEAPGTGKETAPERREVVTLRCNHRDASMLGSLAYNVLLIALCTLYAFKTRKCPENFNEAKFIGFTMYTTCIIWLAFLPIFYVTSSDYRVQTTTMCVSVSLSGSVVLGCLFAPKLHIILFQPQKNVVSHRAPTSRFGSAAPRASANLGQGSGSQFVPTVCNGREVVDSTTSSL
Metabotropic glutamate receptor 5 (Homo sapiens), sequence (P41594 21-1212 limits assumed): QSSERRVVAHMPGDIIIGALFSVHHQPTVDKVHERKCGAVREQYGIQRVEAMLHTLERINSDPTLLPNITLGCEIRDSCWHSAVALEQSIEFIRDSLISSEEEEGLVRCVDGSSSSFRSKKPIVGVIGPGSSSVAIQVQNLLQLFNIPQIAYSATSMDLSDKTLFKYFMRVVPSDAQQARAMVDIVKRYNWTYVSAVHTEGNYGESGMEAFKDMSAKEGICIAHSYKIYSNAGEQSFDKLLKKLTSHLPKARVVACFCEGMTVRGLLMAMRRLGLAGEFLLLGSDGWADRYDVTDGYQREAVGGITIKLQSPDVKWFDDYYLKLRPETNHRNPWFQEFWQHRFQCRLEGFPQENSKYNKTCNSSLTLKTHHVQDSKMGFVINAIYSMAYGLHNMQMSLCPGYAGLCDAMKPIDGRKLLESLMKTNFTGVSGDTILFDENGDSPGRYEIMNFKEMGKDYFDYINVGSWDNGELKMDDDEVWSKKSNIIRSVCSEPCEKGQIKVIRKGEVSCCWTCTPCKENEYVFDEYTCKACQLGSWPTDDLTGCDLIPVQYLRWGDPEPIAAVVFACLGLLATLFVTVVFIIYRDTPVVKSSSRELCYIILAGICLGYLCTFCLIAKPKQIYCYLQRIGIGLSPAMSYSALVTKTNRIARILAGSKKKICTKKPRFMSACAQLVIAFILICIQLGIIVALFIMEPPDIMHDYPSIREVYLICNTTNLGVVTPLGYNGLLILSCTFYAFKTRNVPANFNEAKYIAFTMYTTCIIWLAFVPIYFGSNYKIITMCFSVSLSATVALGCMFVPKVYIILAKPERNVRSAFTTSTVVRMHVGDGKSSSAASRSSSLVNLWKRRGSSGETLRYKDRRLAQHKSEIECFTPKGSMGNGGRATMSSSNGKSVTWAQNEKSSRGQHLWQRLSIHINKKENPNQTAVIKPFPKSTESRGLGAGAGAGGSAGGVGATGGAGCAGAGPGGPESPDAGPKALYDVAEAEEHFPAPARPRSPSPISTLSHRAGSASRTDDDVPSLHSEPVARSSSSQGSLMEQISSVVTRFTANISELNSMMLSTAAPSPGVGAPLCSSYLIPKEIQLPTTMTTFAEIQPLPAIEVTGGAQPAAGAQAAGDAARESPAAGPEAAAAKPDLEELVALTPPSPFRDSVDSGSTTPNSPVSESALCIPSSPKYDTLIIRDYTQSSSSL
D(2) dopamine receptor (Rattus norvegicus, UniProt P61169), sequence (P61169 whole entry): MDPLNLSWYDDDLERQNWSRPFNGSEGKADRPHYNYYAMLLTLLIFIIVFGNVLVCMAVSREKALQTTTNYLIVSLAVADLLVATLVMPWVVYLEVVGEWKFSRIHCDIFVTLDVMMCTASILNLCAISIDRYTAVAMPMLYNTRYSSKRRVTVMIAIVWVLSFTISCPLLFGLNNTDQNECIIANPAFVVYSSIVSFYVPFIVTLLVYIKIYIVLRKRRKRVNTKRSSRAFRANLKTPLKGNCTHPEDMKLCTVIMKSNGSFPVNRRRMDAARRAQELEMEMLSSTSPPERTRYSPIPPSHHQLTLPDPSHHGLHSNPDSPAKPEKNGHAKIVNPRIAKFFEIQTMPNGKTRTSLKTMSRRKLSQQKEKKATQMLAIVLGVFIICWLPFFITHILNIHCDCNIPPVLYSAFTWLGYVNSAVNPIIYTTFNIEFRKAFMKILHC
Metabotropic glutamate receptor 1 (Homo sapiens), sequence (Q13255 19-1194 limits assumed): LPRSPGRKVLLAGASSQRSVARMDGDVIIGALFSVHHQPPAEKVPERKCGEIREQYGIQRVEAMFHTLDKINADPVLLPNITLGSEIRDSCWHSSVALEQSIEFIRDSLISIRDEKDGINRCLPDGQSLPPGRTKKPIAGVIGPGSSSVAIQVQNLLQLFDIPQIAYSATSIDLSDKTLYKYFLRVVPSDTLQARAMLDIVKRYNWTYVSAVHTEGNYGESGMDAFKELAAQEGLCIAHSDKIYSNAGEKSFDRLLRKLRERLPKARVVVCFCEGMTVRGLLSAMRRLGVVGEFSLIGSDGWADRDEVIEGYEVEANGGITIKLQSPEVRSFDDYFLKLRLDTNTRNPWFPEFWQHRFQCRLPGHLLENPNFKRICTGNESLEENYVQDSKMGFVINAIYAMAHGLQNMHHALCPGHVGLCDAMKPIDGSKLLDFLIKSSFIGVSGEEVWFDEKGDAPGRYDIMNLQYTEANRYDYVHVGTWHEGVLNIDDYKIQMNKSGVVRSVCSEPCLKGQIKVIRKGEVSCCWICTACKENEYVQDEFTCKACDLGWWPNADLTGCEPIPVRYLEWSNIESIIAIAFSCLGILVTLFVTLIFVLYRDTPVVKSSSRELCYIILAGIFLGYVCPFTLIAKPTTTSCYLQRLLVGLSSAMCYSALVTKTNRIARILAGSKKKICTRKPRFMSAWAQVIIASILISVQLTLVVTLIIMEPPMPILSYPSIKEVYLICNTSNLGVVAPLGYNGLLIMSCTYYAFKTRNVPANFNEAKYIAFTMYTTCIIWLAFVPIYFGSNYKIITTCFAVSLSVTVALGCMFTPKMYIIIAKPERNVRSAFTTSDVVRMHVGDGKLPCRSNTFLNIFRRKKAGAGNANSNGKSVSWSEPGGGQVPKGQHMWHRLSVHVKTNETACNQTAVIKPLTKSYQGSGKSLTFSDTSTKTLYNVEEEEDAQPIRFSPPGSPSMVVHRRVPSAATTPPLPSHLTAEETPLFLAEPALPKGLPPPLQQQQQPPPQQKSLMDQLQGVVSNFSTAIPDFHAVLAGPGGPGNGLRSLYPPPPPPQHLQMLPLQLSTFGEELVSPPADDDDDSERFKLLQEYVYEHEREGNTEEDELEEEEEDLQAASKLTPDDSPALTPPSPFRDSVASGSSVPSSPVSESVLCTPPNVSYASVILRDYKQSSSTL

With `Cn1c(CN2CCC(c3ccc(Cl)cc3F)CC2)nc2ccccc21` the EC50 [1] was 7.6 nM.
With `C[C@H]1CN(Cc2nc3ncccc3n2C)CC[C@H]1c1ccc(OC(F)(F)F)cc1F` the inhibition (Mus musculus [2]) was “Dose-dependent effect”, the minimal effective dose (Mus musculus [2]; read-out: MED) was 10 mg/kg and the Cmax [3] was 1070 nM. For the same compound, the inhibition (Mus musculus [4]) was “Dose-dependent effect”, the minimal effective dose (Mus musculus [4]; 1 h, read-out: MED) was 17.8 mg/kg and the bioavailability [5] was 50%. It also gave a clearance [6] of 4.5 mL/min/kg, a Fu (Brain) of 0.3% and a Kp at 1 h [7] of 4. The Kp at 1 h [8] was 1.2, the Ki (D(2) dopamine receptor [9]) was over 4680 nM and the Papp A→B at 1 µM [10] was 14 ×10⁻⁶ cm/s. The Activity [11] was “inactive”, the Activity [12] was “inactive” and the Activity [13] was “inactive”. For the same compound, the Activity [14] was “inactive” and the Activity [15] was “inactive”.
`COc1cc(C(F)(F)F)ccc1C1CCN(Cc2nc3ncccc3n2C)CC1` showed a Ki (D(2) dopamine receptor [9]) of 2430 nM and an EC50 [1] of 13 nM.
`Cn1c(CN2CCC(c3ccccc3C(F)(F)F)CC2)nc2ccccc21` gave an EC50 [1] of 109 nM.
With `Cn1c(CN2CCC(c3ccc(C(F)(F)F)cc3)CC2)nc2cnccc21` the Ki (D(2) dopamine receptor [9]) was 671 nM and the EC50 [1] was 168 nM.
`C[C@H]1CN(Cc2nc3ncccc3n2C)CC[C@H]1c1ccc(Cl)cc1F` gave a Ki (D(2) dopamine receptor [9]) of 1620 nM and an EC50 [1] of 28 nM.
In the case of `Cn1c(CN2CCC(c3ccc(OC(F)(F)F)cc3F)CC2)nc2ncccc21`, the Ki (D(2) dopamine receptor [9]) is reported as 1180 nM and the EC50 [1] is reported as 25 nM.
`C[C@H]1CN(Cc2nc3ncccc3n2C)CC[C@H]1c1ccc(C(F)(F)F)cc1` showed a Ki (D(2) dopamine receptor [9]) of over 2800 nM and an EC50 [1] of 33 nM.
In the case of `Cn1c(CN2CCC(c3ccc(C(F)(F)F)cc3)CC2)nc2cccnc21`, the EC50 [1] is reported as 285 nM.
Compound `C[C@H]1CN(Cc2nc3ncccc3n2C)CC[C@H]1c1ccc(C(F)(F)F)cc1` (racemic) has a Ki (D(2) dopamine receptor [9]) of over 2800 nM and an EC50 [1] of 111 nM.
With `CNC(=O)c1cccc(C2CCN(Cc3nc4ccccc4n3C)CC2)c1` the EC50 [1] was over 10000 nM.
`Cn1c(CN2CCC(c3ccc(C(F)(F)F)cc3)C(O)C2)nc2ncccc21` (trans isomer) showed an EC50 [1] of over 10000 nM.
`COc1ccccc1C1CCN(Cc2nc3ccccc3n2C)CC1` showed an inhibition [16] of under 50%, an inhibition [17] of under 50% and an inhibition [18] of under 50%. It also gave an inhibition [19] of under 50%, a Ki (D(2) dopamine receptor [9]) of 426 nM and a Papp A→B at 1 µM [10] of 25.8 ×10⁻⁶ cm/s. It also gave a Ratio (MDCK) of 1.28, an EC50 [1] of 87 nM and an inhibition [20] of under 50%. It also gave an inhibition [21] of under 50%, an EC50 (D(2) dopamine receptor [22]) of 951 nM and an inhibition at 3.16 µM (hERG (KCNH2)) of under 50%. The Activity [11] was “inactive”, the Activity [12] was “inactive” and the Activity [13] was “inactive”. For the same compound, the Activity [14] was “inactive” and the Activity [15] was “inactive”.
With `Cn1c(CN2CC[C@@H](c3ccc(C(F)(F)F)cc3)C(C)(C)C2)nc2ncccc21` the Ki (D(2) dopamine receptor [9]) was over 2800 nM and the EC50 [1] was 745 nM.
With `Cn1c(CN2CCC(c3ccccc3)CC2)nc2ccccc21` the EC50 [1] was 212 nM.
Work on `Cn1c(CN2CCC(c3cccc(C#N)c3)CC2)nc2ccccc21` yielded an EC50 [1] of 1620 nM.
Compound `C[C@@H]1CN(Cc2nc3ncccc3n2C)CC[C@@H]1c1ccc(C(F)(F)F)cc1F` has an EC50 [1] of 993 nM.
